Measurements from ChEMBL document CHEMBL4177534, “Discovery and evaluation of 1H-pyrrolo[2,3-b]pyridine based selective and reversible small molecule BTK inhibitors for the treatment of rheumatoid arthritis” (Bioorg Med Chem Lett, 2017).

Assays:
[1] = biological target: Cytoplasmic tyrosine-protein kinase BMX (Homo sapiens) (UniProt P51813); test: Inhibition of recombinant full length N-terminal GST-tagged BMX (unknown origin) expressed in baculovirus infected Sf9 cells assessed as change in enzyme activity at 1 uM in presence of 2 uM ATP relative to control; parameters: scale not given: the % may be the effect or the level left
[2] = biological target: Death-associated protein kinase 1 (Homo sapiens) (UniProt P53355); test: Inhibition of recombinant human N-terminal GST-tagged DAPK1 (1 to363 residues) expressed in baculovirus infected Sf9 cells assessed as change in enzyme activity at 1 uM in presence of 1 uM ATP relative to control; parameters: scale not given: the % may be the effect or the level left
[3] = biological target: Tyrosine-protein kinase Lyn (Homo sapiens) (UniProt P07948); test: Inhibition of recombinant human full length N-terminal GST-tagged LYN A expressed in baculovirus infected Sf9 cells assessed as change in enzyme activity at 1 uM in presence of 1 uM ATP relative to control; parameters: scale not given: the % may be the effect or the level left
[4] = biological target: Vascular endothelial growth factor receptor 3 (Homo sapiens) (UniProt P35916); test: Inhibition of recombinant human N-terminal GST-tagged FLT4 (800 to end residues) expressed in baculovirus infected Sf9 cells assessed as change in enzyme activity at 1 uM in presence of 2 uM ATP relative to control; parameters: scale not given: the % may be the effect or the level left
[5] = biological target: Serine/threonine-protein kinase Chk1 (Homo sapiens) (UniProt O14757); test: Inhibition of recombinant human full length N-terminal GST/His tagged CHK1 expressed in baculovirus infected Sf9 cells assessed as change in enzyme activity at 1 uM in presence of 1 uM ATP relative to control; parameters: scale not given: the % may be the effect or the level left
[6] = Cmax in mouse at 10 mg/kg, po; format: ADME, organism-based; parameters: dose 10 mg/kg, route oral; details: in vivo
[7] = biological target: Mast/stem cell growth factor receptor Kit (Homo sapiens) (UniProt P10721); test: Inhibition of recombinant human N-terminal GST-tagged c-KIT (544 to end residues) expressed in baculovirus infected Sf9 cells assessed as change in enzyme activity at 1 uM in presence of 2 uM ATP relative to control; parameters: scale not given: the % may be the effect or the level left
[8] = biological target: Homeodomain-interacting protein kinase 4 (Homo sapiens) (UniProt Q8NE63); test: Inhibition of recombinant human full length N-terminal GST-tagged HIPK4 expressed in baculovirus infected Sf9 cells assessed as change in enzyme activity at 1 uM in presence of 2 uM ATP relative to control; parameters: scale not given: the % may be the effect or the level left
[9] = biological target: MAP kinase-activated protein kinase 3 (Homo sapiens) (UniProt Q16644); test: Inhibition of recombinant human full length N-terminal GST-tagged MAPKAPK3 expressed in baculovirus infected Sf9 cells assessed as change in enzyme activity at 1 uM in presence of 1 uM ATP relative to control; parameters: scale not given: the % may be the effect or the level left
[10] = biological target: Tyrosine-protein kinase ABL1 (Homo sapiens) (UniProt P00519); test: Inhibition of recombinant human N-terminal GST-tagged ABL1 (27 to end residues) expressed in baculovirus infected Sf9 cells assessed as change in enzyme activity at 1 uM in presence of 1 uM ATP relative to control; parameters: scale not given: the % may be the effect or the level left
[11] = Metabolic stability in rat liver microsomes assessed as metabolism rate; format: ADME, microsome
[12] = biological target: Tyrosine-protein kinase BTK (Mus musculus, UniProt P35991); test: Inhibition of C57BL/6J mouse BTK assessed as decrease in anti-mouse IgM antibody stimulated BCR mediated CD69 upregulation preincubated for 30 mins followed by antibody challenge after 18 to 24 hrs by flow cytometry
[13] = biological target: Insulin-like growth factor 1 receptor (Homo sapiens) (UniProt P08069); test: Inhibition of recombinant human N-terminal His tagged IGF1R (960 to end residues) expressed in baculovirus infected Sf9 cells assessed as change in enzyme activity at 1 uM in presence of 2 uM ATP relative to control; parameters: scale not given: the % may be the effect or the level left
[14] = biological target: Mitogen-activated protein kinase kinase kinase 9 (Homo sapiens) (UniProt P80192); test: Inhibition of recombinant human N-terminal GST-tagged MLK1 (1 to 433 residues) expressed in baculovirus infected Sf9 cells assessed as change in enzyme activity at 1 uM in presence of 2 uM ATP relative to control; parameters: scale not given: the % may be the effect or the level left
[15] = biological target: Tyrosine-protein kinase BTK (Homo sapiens, UniProt Q06187); test: Inhibition of recombinant human full length BTK preincubated for 10 mins followed by Tk-biotin peptide substrate addition after 90 mins by TR-FRET assay
[16] = biological target: Platelet-derived growth factor receptor beta (Homo sapiens) (UniProt P09619); test: Inhibition of recombinant human full length N-terminal GST-tagged PDGFRbeta (unknown origin) expressed in baculovirus infected Sf9 cells assessed as change in enzyme activity at 1 uM in presence of 1 uM ATP relative to control; parameters: scale not given: the % may be the effect or the level left
[17] = biological target: AMPK alpha2/beta1/gamma1 (Homo sapiens) (UniProt P54646+P54619+Q9Y478); test: Inhibition of recombinant human full length C-terminal His tagged AMPKalpha2beta1gamma1 expressed in baculovirus infected Sf9 cells assessed as change in enzyme activity at 1 uM in presence of 2 uM ATP relative to control; parameters: scale not given: the % may be the effect or the level left
[18] = biological target: Tyrosine-protein kinase TXK (Homo sapiens, UniProt P42681); test: Inhibition of TXK (unknown origin)
[19] = biological target: STE20-like serine/threonine-protein kinase (Homo sapiens) (UniProt Q9H2G2); test: Inhibition of recombinant human full length N-terminal GST-tagged SLK expressed in baculovirus infected Sf9 cells assessed as change in enzyme activity at 1 uM in presence of 2 uM ATP relative to control; parameters: scale not given: the % may be the effect or the level left
[20] = biological target: Mitogen-activated protein kinase kinase kinase 1 (Homo sapiens) (UniProt Q13233); test: Inhibition of recombinant human N-terminal GST-tagged MEKK1 ([…] residues) expressed in baculovirus infected Sf9 cells assessed as change in enzyme activity at 1 uM in presence of 2 uM ATP relative to control; parameters: scale not given: the % may be the effect or the level left
[21] = biological target: Fibroblast growth factor receptor 4 (Homo sapiens) (UniProt P22455); test: Inhibition of recombinant human N-terminal GST-tagged FGFR4 (460 to end) residues expressed in baculovirus infected Sf9 cells assessed as change in enzyme activity at 1 uM in presence of 1 uM ATP relative to control; parameters: scale not given: the % may be the effect or the level left
[22] = Metabolic stability in human liver microsomes assessed as metabolism rate; format: ADME, microsome
[23] = biological target: Serine/threonine-protein kinase Nek11 (Homo sapiens) (UniProt Q8NG66); test: Inhibition of recombinant human full length N-terminal GST-tagged NEK11 expressed in baculovirus infected Sf9 cells assessed as change in enzyme activity at 1 uM in presence of 2 uM ATP relative to control; parameters: scale not given: the % may be the effect or the level left
[24] = biological target: Aurora kinase A (Homo sapiens) (UniProt O14965); test: Inhibition of recombinant full length N-terminal GST-tagged AURORA A (unknown origin) expressed in baculovirus infected Sf9 cells assessed as change in enzyme activity at 1 uM in presence of 2 uM ATP relative to control; parameters: scale not given: the % may be the effect or the level left
[25] = biological target: Tyrosine-protein kinase ITK/TSK (Homo sapiens, UniProt Q08881); test: Inhibition of recombinant human full length ITK preincubated for 10 mins followed by Tk-biotin peptide substrate addition after 60 mins by TR-FRET assay
[26] = biological target: High affinity nerve growth factor receptor (Homo sapiens) (UniProt P04629); test: Inhibition of recombinant human N-terminal GST-tagged TRKA (440 to end residues) expressed in baculovirus infected Sf9 cells assessed as change in enzyme activity at 1 uM in presence of 2 uM ATP relative to control; parameters: scale not given: the % may be the effect or the level left
Sequence of High affinity nerve growth factor receptor (Homo sapiens) (P04629 33-796 limits assumed): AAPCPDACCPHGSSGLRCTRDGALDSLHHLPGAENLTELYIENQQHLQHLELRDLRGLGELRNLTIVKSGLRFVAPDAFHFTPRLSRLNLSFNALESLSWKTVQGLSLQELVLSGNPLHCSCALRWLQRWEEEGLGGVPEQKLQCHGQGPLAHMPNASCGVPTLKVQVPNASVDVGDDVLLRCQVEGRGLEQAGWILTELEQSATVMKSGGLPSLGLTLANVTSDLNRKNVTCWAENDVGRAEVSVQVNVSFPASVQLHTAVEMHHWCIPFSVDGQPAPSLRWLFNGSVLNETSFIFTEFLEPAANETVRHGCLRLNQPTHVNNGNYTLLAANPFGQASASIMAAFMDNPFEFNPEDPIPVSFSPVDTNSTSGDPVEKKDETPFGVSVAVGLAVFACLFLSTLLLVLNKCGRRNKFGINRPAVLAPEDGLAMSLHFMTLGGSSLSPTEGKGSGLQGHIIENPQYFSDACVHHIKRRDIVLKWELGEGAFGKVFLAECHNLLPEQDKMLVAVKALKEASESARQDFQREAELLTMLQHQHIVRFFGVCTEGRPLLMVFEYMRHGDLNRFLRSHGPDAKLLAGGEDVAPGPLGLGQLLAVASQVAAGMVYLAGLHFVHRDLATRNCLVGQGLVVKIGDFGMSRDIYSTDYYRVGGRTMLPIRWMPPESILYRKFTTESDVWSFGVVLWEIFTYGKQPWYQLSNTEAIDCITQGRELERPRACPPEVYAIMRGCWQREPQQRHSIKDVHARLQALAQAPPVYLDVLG

Sequence of Tyrosine-protein kinase BTK (Mus musculus, UniProt P35991) (P35991 whole entry): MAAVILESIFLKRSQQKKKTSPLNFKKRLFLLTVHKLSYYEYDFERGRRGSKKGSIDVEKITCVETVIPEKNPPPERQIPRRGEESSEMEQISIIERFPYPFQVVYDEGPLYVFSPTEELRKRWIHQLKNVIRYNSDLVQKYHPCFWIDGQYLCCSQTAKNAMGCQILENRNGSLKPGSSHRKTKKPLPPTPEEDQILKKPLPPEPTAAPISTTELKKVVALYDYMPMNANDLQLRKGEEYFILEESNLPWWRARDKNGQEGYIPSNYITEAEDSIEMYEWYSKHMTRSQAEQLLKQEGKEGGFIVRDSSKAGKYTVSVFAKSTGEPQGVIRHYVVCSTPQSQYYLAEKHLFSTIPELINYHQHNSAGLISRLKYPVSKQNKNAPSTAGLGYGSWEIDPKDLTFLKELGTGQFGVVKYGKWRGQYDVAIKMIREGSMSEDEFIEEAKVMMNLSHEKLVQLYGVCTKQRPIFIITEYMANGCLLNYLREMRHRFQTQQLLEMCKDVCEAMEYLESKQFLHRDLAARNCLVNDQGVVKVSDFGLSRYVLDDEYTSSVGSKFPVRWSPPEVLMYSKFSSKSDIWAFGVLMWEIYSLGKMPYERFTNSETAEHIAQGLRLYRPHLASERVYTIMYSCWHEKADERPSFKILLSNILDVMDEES
Sequence of AMPK alpha2/beta1/gamma1 (Homo sapiens) (P54619 whole entry partner): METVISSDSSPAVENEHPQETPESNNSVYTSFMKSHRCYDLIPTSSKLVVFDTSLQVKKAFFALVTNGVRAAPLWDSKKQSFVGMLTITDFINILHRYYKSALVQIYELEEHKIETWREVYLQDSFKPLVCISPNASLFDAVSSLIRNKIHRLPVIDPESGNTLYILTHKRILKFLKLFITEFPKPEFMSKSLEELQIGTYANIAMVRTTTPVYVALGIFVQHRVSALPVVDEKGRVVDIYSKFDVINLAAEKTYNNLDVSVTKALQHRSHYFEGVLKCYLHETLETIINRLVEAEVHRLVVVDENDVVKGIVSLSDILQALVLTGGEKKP
Sequence of AMPK alpha2/beta1/gamma1 (Homo sapiens) (P54646 whole entry): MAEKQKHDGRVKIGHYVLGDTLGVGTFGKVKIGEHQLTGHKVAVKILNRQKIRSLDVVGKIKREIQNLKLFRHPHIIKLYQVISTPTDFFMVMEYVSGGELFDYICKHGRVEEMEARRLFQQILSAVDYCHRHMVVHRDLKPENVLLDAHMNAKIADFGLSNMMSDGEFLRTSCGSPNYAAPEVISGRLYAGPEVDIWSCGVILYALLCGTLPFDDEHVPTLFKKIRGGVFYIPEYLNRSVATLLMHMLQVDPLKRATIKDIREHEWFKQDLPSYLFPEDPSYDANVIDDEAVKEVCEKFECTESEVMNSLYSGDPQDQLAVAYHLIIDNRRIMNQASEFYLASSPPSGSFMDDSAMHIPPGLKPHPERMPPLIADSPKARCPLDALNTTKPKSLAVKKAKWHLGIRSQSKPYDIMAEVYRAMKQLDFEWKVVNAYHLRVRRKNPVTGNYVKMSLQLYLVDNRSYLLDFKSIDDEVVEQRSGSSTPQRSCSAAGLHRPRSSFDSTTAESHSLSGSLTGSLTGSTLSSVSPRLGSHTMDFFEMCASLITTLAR
Sequence of AMPK alpha2/beta1/gamma1 (Homo sapiens) (Q9Y478 2-270 partner limits assumed): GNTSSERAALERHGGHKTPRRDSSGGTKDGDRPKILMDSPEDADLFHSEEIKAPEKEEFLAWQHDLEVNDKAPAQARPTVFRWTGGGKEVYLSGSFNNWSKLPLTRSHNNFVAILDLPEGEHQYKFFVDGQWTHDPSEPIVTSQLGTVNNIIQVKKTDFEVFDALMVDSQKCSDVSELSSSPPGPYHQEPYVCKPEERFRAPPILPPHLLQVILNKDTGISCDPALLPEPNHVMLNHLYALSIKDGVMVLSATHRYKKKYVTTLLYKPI
Sequence of Fibroblast growth factor receptor 4 (Homo sapiens) (P22455 22-802 limits assumed): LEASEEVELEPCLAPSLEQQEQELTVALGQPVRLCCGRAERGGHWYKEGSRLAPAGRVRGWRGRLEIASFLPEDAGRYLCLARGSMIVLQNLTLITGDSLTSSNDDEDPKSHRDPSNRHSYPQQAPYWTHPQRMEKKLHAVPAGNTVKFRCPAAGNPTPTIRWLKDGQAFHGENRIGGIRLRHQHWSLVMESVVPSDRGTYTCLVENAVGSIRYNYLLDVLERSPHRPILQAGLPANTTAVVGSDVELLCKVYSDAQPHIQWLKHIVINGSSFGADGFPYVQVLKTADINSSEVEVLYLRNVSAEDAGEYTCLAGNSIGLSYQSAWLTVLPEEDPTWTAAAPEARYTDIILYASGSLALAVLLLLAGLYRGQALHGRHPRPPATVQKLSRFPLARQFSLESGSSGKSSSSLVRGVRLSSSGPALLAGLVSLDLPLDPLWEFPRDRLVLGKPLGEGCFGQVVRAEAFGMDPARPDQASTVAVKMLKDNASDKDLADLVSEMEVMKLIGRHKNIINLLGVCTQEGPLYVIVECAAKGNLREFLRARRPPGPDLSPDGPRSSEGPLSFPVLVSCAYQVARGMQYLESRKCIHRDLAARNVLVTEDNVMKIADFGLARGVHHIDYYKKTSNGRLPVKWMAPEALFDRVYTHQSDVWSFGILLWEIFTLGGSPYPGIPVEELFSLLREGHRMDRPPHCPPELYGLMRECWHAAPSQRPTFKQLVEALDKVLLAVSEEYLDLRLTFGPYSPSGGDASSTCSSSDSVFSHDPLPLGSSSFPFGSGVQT
Sequence of Serine/threonine-protein kinase Nek11 (Homo sapiens) (Q8NG66 whole entry): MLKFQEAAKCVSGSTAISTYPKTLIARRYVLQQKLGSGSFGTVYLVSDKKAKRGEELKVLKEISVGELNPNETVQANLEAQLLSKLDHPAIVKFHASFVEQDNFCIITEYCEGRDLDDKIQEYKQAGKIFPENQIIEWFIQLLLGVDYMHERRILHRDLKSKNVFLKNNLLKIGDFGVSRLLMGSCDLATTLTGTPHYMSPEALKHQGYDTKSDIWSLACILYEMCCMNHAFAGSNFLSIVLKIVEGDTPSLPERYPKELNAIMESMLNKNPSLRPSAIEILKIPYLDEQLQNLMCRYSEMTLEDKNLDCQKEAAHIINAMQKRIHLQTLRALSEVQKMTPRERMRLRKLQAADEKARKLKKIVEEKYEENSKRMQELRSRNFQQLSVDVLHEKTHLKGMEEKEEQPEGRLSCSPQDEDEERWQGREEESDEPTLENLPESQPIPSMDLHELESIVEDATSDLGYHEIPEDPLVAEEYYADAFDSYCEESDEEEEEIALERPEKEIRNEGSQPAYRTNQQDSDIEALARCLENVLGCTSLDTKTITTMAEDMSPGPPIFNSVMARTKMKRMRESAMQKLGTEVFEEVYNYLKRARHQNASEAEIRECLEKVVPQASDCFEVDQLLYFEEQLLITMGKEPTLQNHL
Sequence of Aurora kinase A (Homo sapiens) (O14965 whole entry): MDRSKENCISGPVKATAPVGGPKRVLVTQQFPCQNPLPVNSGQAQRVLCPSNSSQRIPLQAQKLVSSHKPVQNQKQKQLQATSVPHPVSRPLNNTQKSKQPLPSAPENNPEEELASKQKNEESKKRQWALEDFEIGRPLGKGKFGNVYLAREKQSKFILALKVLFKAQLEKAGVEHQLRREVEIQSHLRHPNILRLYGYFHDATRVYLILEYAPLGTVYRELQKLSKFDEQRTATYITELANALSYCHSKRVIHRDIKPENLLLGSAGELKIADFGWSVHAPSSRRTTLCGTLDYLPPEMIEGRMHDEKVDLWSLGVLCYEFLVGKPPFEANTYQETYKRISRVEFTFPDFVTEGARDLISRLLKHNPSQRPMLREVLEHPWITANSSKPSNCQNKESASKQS
Sequence of Homeodomain-interacting protein kinase 4 (Homo sapiens) (Q8NE63 whole entry): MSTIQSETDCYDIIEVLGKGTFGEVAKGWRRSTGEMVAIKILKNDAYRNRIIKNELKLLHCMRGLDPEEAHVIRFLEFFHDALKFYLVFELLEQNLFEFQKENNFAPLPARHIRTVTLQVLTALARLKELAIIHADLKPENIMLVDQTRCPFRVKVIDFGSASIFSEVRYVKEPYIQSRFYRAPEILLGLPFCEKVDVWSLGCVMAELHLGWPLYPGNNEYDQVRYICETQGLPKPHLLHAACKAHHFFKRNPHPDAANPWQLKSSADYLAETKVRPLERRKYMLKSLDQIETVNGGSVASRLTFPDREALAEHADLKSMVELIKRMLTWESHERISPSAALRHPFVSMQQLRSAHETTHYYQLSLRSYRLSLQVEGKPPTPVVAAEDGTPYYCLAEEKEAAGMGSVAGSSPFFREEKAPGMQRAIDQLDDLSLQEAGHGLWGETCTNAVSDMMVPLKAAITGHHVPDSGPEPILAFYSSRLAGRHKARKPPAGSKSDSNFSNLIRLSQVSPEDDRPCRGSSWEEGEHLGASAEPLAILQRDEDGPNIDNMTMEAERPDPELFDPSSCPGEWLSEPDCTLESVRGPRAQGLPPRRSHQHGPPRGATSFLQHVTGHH

| Activity [1] [%] | Activity [3] [%] | Activity [4] [%] | Activity [5] [%] | Cmax [6] [µM] | Activity [7] [%] | Activity [8] [%] | Activity [9] [%] | Activity [10] [%] | Drug metabolism [11] | IC50 [12] [nM] | Activity [13] [%] | Activity [14] [%] | IC50 [15] [nM] | Activity [16] [%] | Activity [17] [%] | IC50 [18] [nM] | Activity [19] [%] | Activity [20] [%] | SMILES | Activity [2] [%] | further results |
| --- | --- | --- | --- | --- | --- | --- | --- | --- | --- | --- | --- | --- | --- | --- | --- | --- | --- | --- | --- | --- | --- |
| -10 | -2 | -3 | -3 | 7.6 | 0 | 3 | 3 | -16 | < 0.04 nmol/min/mg | 41.9 | -6 | 2 | 3.1 | -3 | 1 | > 10000 | -9 | 3 | O=C1c2c(F)cc(C3CC3)cc2OCCN1c1cccc(-c2ccnc3[nH]c(C4=CCN(C5COC5)CC4)cc23)c1CO | -1 | Activity [21]: 1%; Drug metabolism [22]: < 0.04 nmol/min/mg; Activity [23]: -6%; Activity [24]: -10%; IC50 [25]: > 10000 nM; Activity [26]: -10% |
| -49 | -12 | -3 | -14 | 2.3 | -1 | 1 | -4 | -41 | <= 0.04 nmol/min/mg | 8.4 | 4 | -6 | 2.6 | 2 | 2 | > 10000 | -5 | 2 | CCN1CCN(Cc2ccc(-c3cc4c(-c5cccc(N6CCOc7cc(C8CC8)cc(F)c7C6=O)c5CO)ccnc4[nH]3)nc2)CC1 | 2 | Activity [21]: 0%; Drug metabolism [22]: < 0.04 nmol/min/mg; Activity [23]: -5%; Activity [24]: -2%; IC50 [25]: > 10000 nM; Activity [26]: -4% |
